Assay results as given in article PMC6652808, “The Inhibitory Effect of GlmU Acetyltransferase Inhibitor TPSA on Mycobacterium tuberculosis May Be Affected Due to Its Methylation by Methyltransferase Rv0560c” (Frontiers in Cellular and Infection Microbiology, 2019).

Target: GlmU (Mycobacterium tuberculosis, UniProt P9WMN3)
Assay: […]; double reciprocal plots; […]
Format: biochemical

Chain of GlmU (P9WMN3 2-495): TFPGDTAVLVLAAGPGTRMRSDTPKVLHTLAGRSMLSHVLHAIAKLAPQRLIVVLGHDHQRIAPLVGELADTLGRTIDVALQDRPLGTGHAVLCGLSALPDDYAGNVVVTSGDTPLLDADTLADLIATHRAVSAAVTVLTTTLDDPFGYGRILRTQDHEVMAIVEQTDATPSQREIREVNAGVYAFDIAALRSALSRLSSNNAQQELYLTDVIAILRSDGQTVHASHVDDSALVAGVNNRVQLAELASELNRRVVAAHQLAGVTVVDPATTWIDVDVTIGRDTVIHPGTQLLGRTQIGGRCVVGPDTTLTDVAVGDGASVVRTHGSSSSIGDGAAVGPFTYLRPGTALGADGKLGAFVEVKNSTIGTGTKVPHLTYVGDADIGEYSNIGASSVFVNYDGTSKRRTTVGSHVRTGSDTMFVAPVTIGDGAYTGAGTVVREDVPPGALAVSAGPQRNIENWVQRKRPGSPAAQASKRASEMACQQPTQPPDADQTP

In the case of `O=C(O)Cc1ccc(C(=O)CSc2nccc(-c3cccs3)n2)s1` [TPSA, 2-[5-(2-{[4-(2-thienyl)-2-pyrimidinyl]sulfanyl}acetyl)-2-thienyl]acetic acid], the IC50 is reported as 5.3 ± 0.48 µM.
